Counter-ions that a name gives are not always drawn. Like-named read-outs stand apart in the source and are kept apart here.
How the values were obtained:
HIV protease = target: T1, HIV protease (Human immunodeficiency virus type 1 group M subtype B, UniProt P04585); assay: HIV Protease Assay; format: biochemical; conditions: for inhibition at 10 µM: pH 5.5, 10 μM inhibitor, 4% DMSO, 450 μM substrate, pH 5.5, 30 minutes at 37° C., RP-HPLC, read-out: HIV Protease % Inhibition at 10 μM
T1 construct: and purified protease
Method in brief: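 At a single final concentration of 10 μM (4% DMSO), inhibitors were added to a 30-minute, 37° C reaction of purified enzyme with 450 μM H2N-Val-Ser-Gln-Asn-(β-naphthyl-alanine)-Pro-Val-Ile-OH at pH 5.5 (sodium acetate, BSA). Hydrolysis was quantified by reverse-phase HPLC with 220 nm detection after acid quench.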

[1] = tested on: RF strain of HIV (CEM-SS cells); assay: Cell Culture Anti-HIV Activity (cell viability, formazan); format: cell-based; conditions: CEM-SS cells, RF strain of HIV, multiplicity of infection 0.04, 6 days at 37° C., 450 nm, read-out: HIV (CEM Cells) IC50
Method in brief: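 Half-log compound dilutions added to CEM-SS cells (5000/well) carrying HIV RF (MOI 0.04), 6 days, 37° C. Cell protection measured as formazan from tetrazolium, A450. IC50: drug level restoring infected-cell formazan to 50% of the uninfected untreated control.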

[2] = Human immunodeficiency virus 1, CEM-SS, 144 h

With `C[C@H](NC(=O)OCc1ccccc1)C(=O)N[C@@H](Cc1ccccc1)[C@H](O)CNC[C@@H](O)[C@H](Cc1ccccc1)NC(=O)OC(C)(C)C` (relative stereo) [Compound 243, [1R*,2S*(2S*,3R*)]-N-[3-[[3-[[(1,1-Dimethylethoxy)carbonyl]amino]-2-hydroxy-4-phenylbutyl]-2-hydroxy-1-(phenylmethyl)propyl]-N^2-[(phenylmethoxy)carbonyl]-L-alaninamide] the inhibition at 10 µM (HIV protease) was 99% and the IC50 [1, 2] was 80 nM.

Compound `CC(C)(C)OC(=O)N[C@@H](Cc1ccccc1)C(O)CN(Cc1ccccc1)CC(O)[C@H](Cc1ccccc1)NC(=O)OC(C)(C)C` (stereo partly drawn) [Compound 194, [2S-(2R*,2R*)]-[[(Phenylmethyl)-imino]bis[2-hydroxy-4-phenyl-3,1-butanediyl]]biscarbamic acid, bis(1,1-dimethylethyl)ester] has an inhibition at 10 µM (HIV protease) of 0% and an IC50 [1, 2] greater than 5000 nM.

Compound `CC(C)(C)OC(=O)N[C@@H](Cc1ccccc1)[C@H](O)CNC[C@@H](O)[C@H](Cc1ccccc1)NC(=O)O[C@H]1CCc2ccccc21` [Compound 146, [1S-(1R*,2S*)]-[Iminobis[2-hydroxy-1-(phenylmethyl)-3,1-propanediyl)]biscarbamic acid, 1,1-dimethylethyl(S)-2,3-dihydro-1H-inden-1-yl ester] has an inhibition at 10 µM (HIV protease) of 98% and an IC50 [1, 2] of no less than 3000 nM.

In the case of `CN(CC(=O)[C@H](Cc1ccccc1)NC(=O)OC(C)(C)C)C[C@@H](O)[C@H](Cc1ccccc1)NC(=O)OC(C)(C)C` [Compound 197, [1S-[1R*(2S*,3R*)]]-[3-[[3-[[(1,1-Dimethylethoxy)carbonyl]-amino]-2-hydroxy-4-phenylbutyl]-methylamino]-2-oxo-1-(phenylmethyl)propyl]carbamic acid, 1,1-dimethylethyl ester], the inhibition at 10 µM (HIV protease) is reported as 10% and the IC50 [1, 2] is reported as greater than 10000 nM.

`COC(=O)N[C@H](C(=O)N[C@@H](Cc1ccccc1)[C@H](O)CNC[C@@H](O)[C@H](Cc1ccc(OCCc2ccccn2)cc1)NC(=O)OC(C)(C)C)C(C)(C)C` (relative stereo) [Compound 327, [1R*,2S*(2S*,3R*)-N-[3-[[3-[[(1,1-Dimethylethoxy)carbonyl]amino]-2-hydroxy-4-[4-[2-(2-pyridinyl)ethoxyl]phenyl]butyl]amino]-2-hydroxy-1-(phenylmethyl)propyl]-N^2-(methoxycarbonyl)-3-methyl-L-valinamide] was tested, and the inhibition at 10 µM (HIV protease) was 99% and the IC50 [1, 2] was 50 nM.

Compound `CC(C)[C@H](NC(=O)CCc1nc2ccccc2[nH]1)C(=O)N[C@@H](Cc1ccccc1)[C@H](O)CNC[C@@H](O)[C@H](Cc1ccccc1)NC(=O)OC(C)(C)C` [Compound 103, [S-[1R*,2S*(2S*,3R*)]-N^2-[3-(1H-Benzimidazol-2-yl)-1-oxo-propyl]-N-[3-[[3-[[(1,1-di-methylethoxy)carbonyl]amino-4-phenylbutyl]amino]-2-hydroxy-1-(phenylmethyl)propyl]-L-valinamide] has an inhibition at 10 µM (HIV protease) of 98% and an IC50 [1, 2] of 1700 nM.

Compound `CC(C)C(C)(NC(=O)OCc1ccccc1)C(=O)N[C@@H](Cc1ccccc1)[C@H](O)CNC[C@@H](O)[C@H](Cc1ccccc1)NC(=O)OC(C)(C)C` (stereo partly drawn) [Compound 73, [(S,R)-3-[[(R,S)-3-[[2-[[(Phenyl-methoxy)carbonyl)amino]-2,3-dimethyl-1-oxy-butyl]amino]-2-hydroxy-4-phenylbutyl]amino]-2-hydroxy-1-(phenylmethyl)-propyl]carbamic acid, 1,1-dimethylethyl ester] has an inhibition at 10 µM (HIV protease) of 99% and an IC50 [1, 2] of 600 nM.

In the case of `CC(C)(C)OC(=O)N[C@@H](Cc1ccccc1)[C@H](O)CNC[C@@H](O)[C@H](Cc1ccccc1)NC(=O)C(C)(O)C(C)(C)CO` (single isomer, unassigned; isomer b) [Compound 357, [1S-[1R*,2S*(2S*,3R*)]]-[3-[[3-[(2,4-Dihydroxy-2,3,3-trimethyl-1-oxobutyl)amino]-2-hydroxy-4-phenylbutyl]amino]-2-hydroxy-1-(phenylmethyl)propyl]carbamic acid, 1,1-dimethylethyl ester, isomer B], the “HIV Protease % Inhibition at 10 μM” value (HIV protease) is reported as 99% and the IC50 [1] is reported as 110 nM.

Compound `CN(CC(O)C(Cc1ccccc1)NC(=O)OC(C)(C)C)CC(O)C(Cc1ccccc1)NC(=O)OC(C)(C)C` (stereo not drawn) [Compound 200, [1S-[1R*,2R*(1R*)]]-[3-[[3-[[(1,1-Dimethylethoxy)carbonyl]-amino]-2-hydroxy-4-phenylbutyl]-methylamino]-2-hydroxy-1-(phenylmethyl)propyl]-carbamic acid, 1,1-dimethylethyl ester] has an inhibition at 10 µM (HIV protease) of 5% and an IC50 [1, 2] greater than 15000 nM.

In the case of `CC(C)[C@H](NC(=O)N(C)Cc1ccccn1)C(=O)N[C@@H](Cc1ccccc1)[C@H](O)CNC[C@@H](O)[C@H](Cc1ccccc1)NC(=O)[C@@H](NC(=O)N(C)Cc1ccccn1)C(C)C` [Compound 75, [S-(1R*,2S*)]-N,N'-[Iminobisr[2-hydroxy-1-(phenylmethyl)-3,1-propanediyl]bisr[N^2-[[methyl(2-pyridinylmethyl)amino]carbonyl]-L-valinamide], the inhibition at 10 µM (HIV protease) is reported as 100% and the IC50 [1, 2] is reported as 5000 nM.

For `CC(C)(C)OC(=O)N[C@@H](Cc1ccccc1)[C@H](O)CNC[C@@H](O)[C@H](Cc1ccc(OCC(=O)N2CCOCC2)cc1)NC(=O)OC(C)(C)C` [Compound 226, [1S-[1R*,2S*(2S*,3R*)]]-[3-[[3-[[(1,1-Dimethylethoxy)carbonyl]amino]-2-hydroxy-4-(4-[2-(4-morpholinyl)-2-oxo-ethoxy]phenyl]butyl]amino]-2-hydroxy-1-(phenylmethyl)propyl]carbamic acid, 1,1-dimethylethyl ester], the inhibition at 10 µM (HIV protease) was 98% and the IC50 [1, 2] was 50 nM.

`CC(C)(C)OC(=O)N[C@@H](Cc1ccccc1)[C@H](O)CNC[C@@H](O)[C@H](Cc1ccccc1O)NC(=O)OC(C)(C)C` [Compound 350, [1S-[1R*,2S*(2S*,3R*)]]-[3-[[3-[[(1,1-Dimethylethoxy)carbonyl]amino]-2-hydroxy-4-(2-hydroxyphenyl)butyl]amino]-2-hydroxy-1-(phenylmethyl)propyl]carbamic acid, 1,1-dimethylethyl ester] was tested, and the inhibition at 10 µM (HIV protease) was 98% and the IC50 [1, 2] was 500 nM.

`CC(C)[C@H](NC(=O)OCc1ccc2ccccc2n1)C(=O)N[C@@H](Cc1ccccc1)[C@H](O)CNC[C@@H](O)[C@H](Cc1ccccc1)NC(=O)OC(C)(C)C` (relative stereo) [Compound 281, [1R*,2S*(2S*,3R*)]]-N-[3-[[1,1-Dimethylethoxy)carbonyl]amino]-2-hydroxy-4-phenylbutyl]amino]-2-hydroxy-1-(phenylmethyl)-proyl]-N^2-[(2-quinolinylmethoxy)carbonyl]-L-valinamide] gave an inhibition at 10 µM (HIV protease) of 100% and an IC50 [1, 2] of 290 nM.

`CC(C)(C)OC(=O)N[C@@H](Cc1ccccc1)[C@H](O)CNC[C@@H](O)[C@H](Cc1ccccc1)NC(=O)[C@@H](NC=O)C(C)(C)C` [Compound 234, [1S-[1R*,2S*(2S*,3R*),(R*)]]-[3-[[3-[[3,3-Dimethyl-2-(formylamino)-1-oxobutyl]amino]-2-hydroxy-4-phenylbutyl]amino]-2-hydroxy-1-(phenylmethyl)propyl]carbamic acid, 1,1-dimethylethyl ester] gave an inhibition at 10 µM (HIV protease) of 100% and an IC50 [1, 2] of 80 nM.

Work on `CC(C)[C@@H](C(=O)N[C@@H](Cc1ccccc1)[C@H](O)CNC[C@@H](O)[C@H](Cc1ccccc1)NC(=O)OC(C)(C)C)N(C)C(=O)OCc1ccccc1` [Compound 66, [S-[1R*,2S*(2S*,3R*)]]-N-[3-[[3-[(1,1-Dimethylethoxy)carbonyl)amino]-2-hydroxy-4-[phenylbutyl]amino]-2-hydroxy-1-(phenylmethyl)propyl]-N^2-methyl-N^2 [(phenylmethoxy)-carbonyl]-L-valinamide] yielded an inhibition at 10 µM (HIV protease) of 99% and an IC50 [1, 2] of 270 nM.

Work on `CC(C)[C@H](NC(=O)OCc1ccccc1)C(=O)N(C)[C@@H](Cc1ccccc1)[C@H](O)CNC[C@@H](O)[C@H](Cc1ccccc1)NC(=O)OC(C)(C)C` [Compound 134, [S-[1R*,2S*(2S*,3R*)]]-N-[3-[[3-[[(1,1-Dimethylethoxy)carbonyl]amino]-2-hydroxy-4-phenylbutyl]amino]-2-hydroxy-1-(phenylmethyl)-propyl]-N-methyl-N^2-[(phenylmethoxy)carbonyl]-L-valinamide] yielded an inhibition at 10 µM (HIV protease) of 87% and an IC50 [1, 2] greater than 5000 nM.

Compound `CC(C)(C)OC(=O)N[C@@H](Cc1ccccc1)[C@H](O)CNC[C@@H](O)[C@H](Cc1ccccc1)NC(=O)C(O)C(C)(C)C` (some centres unmarked) [Compound 214] has an inhibition at 10 µM (HIV protease) of 97% and an IC50 [1, 2] of 50 nM.

`CC(C)[C@H](NC(=O)OCc1ccc(-c2ccccc2)cc1)C(=O)N[C@@H](Cc1ccccc1)[C@H](O)CNC[C@@H](O)[C@H](Cc1ccccc1)NC(=O)OC(C)(C)C` [Compound 68, [S-[1R*,2S*(2S*,3R*)]]-N^2-[([1,1-Biphenyl]-4-ylmethoxy]carbonyl-N-[3-[[3-[[(1,1-dimethylethoxy)carbonyl]amino]-2-hydroxy-4-phenylbutyl]amino]-2-hydroxy-l-(phenylmethyl)[propyl]-L-valinamide] was tested, and the inhibition at 10 µM (HIV protease) was 99% and the IC50 [1, 2] was 110 nM.

`CC(C)C[C@H](N)C(=O)N[C@H](C(=O)N[C@@H](Cc1ccccc1)[C@H](O)CNC[C@@H](O)[C@H](Cc1ccccc1)NC(=O)OC(C)(C)C)C(C)C` [Compound 98, [S-[1R*,2S*(2S*,3R*)]-N-[3-[[3-[[(1,1-Dimethylethoxy)carbonyl]amino]-2-hydroxy-4-phenylbutyl]amino]-2-hydroxy-1(phenylmethyl)propyl]-N^2-(L-leucyl)-L-valinamide, fumarate salt] gave an inhibition at 10 µM (HIV protease) of 100% and an IC50 [1, 2] of 1300 nM.
